Source: patent US20080280920A1, “Plasminogen Activator Inhibitor-1 Inhibitors” (priority 2005, published 2008)

Legend:
KM12 = assay: NCI anticancer screen, KM12; assay type: cell-based, human; settings: KM12, Colon, 48 h
MALME-3M = assay: NCI anticancer screen, MALME-3M; assay type: cell-based, human; settings: Melanoma, 48 h
OVCAR-4 = assay: NCI anticancer screen, OVCAR-4; assay type: cell-based, human; settings: OVCAR-4, Ovarian, 48 h
HT29 = assay: NCI anticancer screen, HT29; assay type: cell-based, human; settings: HT29, Colon, 48 h
OVCAR-8 = assay: NCI anticancer screen, OVCAR-8; assay type: cell-based, human; settings: OVCAR-8, Ovarian, 48 h
HCT-116 = assay: NCI anticancer screen, HCT-116; assay type: cell-based, human; settings: HCT-116, Colon, 48 h
PC-3 = assay: NCI anticancer screen, PC-3; assay type: cell-based, human; settings: PC-3, Prostate, 48 h
UO-31 = assay: NCI anticancer screen, UO-31; assay type: cell-based, human; settings: UO-31, Renal, 48 h
OVCAR-5 = assay: NCI anticancer screen, OVCAR-5; assay type: cell-based, human; settings: OVCAR-5, Ovarian, 48 h
EKVX = assay: NCI anticancer screen, EKVX; assay type: cell-based, human; settings: Non-Small Cell Lung, 48 h
NCI-H522 = assay: NCI anticancer screen, NCI-H522; assay type: cell-based, human; settings: NCI-H522, Non-Small Cell Lung, 48 h
ACHN = assay: NCI anticancer screen, ACHN; assay type: cell-based, human; settings: Renal, 48 h
NCI-H226 = assay: NCI anticancer screen, NCI-H226; assay type: cell-based, human; settings: NCI-H226, Non-Small Cell Lung, 48 h
MDA-MB-231/ATCC = assay: NCI anticancer screen, MDA-MB-231/ATCC; assay type: cell-based, human; settings: Breast, 48 h
SK-OV-3 = assay: NCI anticancer screen, SK-OV-3; assay type: cell-based, human; settings: SK-OV-3, Ovarian, 48 h
A549/ATCC = assay: NCI anticancer screen, A549/ATCC; assay type: cell-based, human; settings: Non-Small Cell Lung, 48 h
SK-MEL-5 = assay: NCI anticancer screen, SK-MEL-5; assay type: cell-based, human; settings: SK-MEL-5, Melanoma, 48 h
SNB-75 = assay: NCI anticancer screen, SNB-75; assay type: cell-based, human; settings: SNB-75, CNS, 48 h
U251 = assay: NCI anticancer screen, U251; assay type: cell-based, human; settings: U251, CNS, 48 h
NCI/ADR-RES = assay: NCI anticancer screen, NCI/ADR-RES; assay type: cell-based, human; settings: Breast, 48 h
A498 = assay: NCI anticancer screen, A498; assay type: cell-based, human; settings: A498, Renal, 48 h
NCI-H23 = assay: NCI anticancer screen, NCI-H23; assay type: cell-based, human; settings: NCI-H23, Non-Small Cell Lung, 48 h
UACC-257 = assay: NCI anticancer screen, UACC-257; assay type: cell-based, human; settings: Homo sapiens; UACC-257, Melanoma, 48 h
MDA-MB-435 = assay: NCI anticancer screen, MDA-MB-435; assay type: cell-based, human; settings: MDA-MB-435, Breast, 48 h
CAKI-1 = assay: NCI anticancer screen, CAKI-1; assay type: cell-based, human; settings: CAKI-1, Renal, 48 h
SK-MEL-2 = assay: NCI anticancer screen, SK-MEL-2; assay type: cell-based, human; settings: SK-MEL-2, Melanoma, 48 h
SK-MEL-28 = assay: NCI anticancer screen, SK-MEL-28; assay type: cell-based, human; settings: SK-MEL-28, Melanoma, 48 h
[1] = tested on: 60 different human cancer cell lines; assay: NCI in vitro anticancer screen (whole panel); assay type: cell-based; settings: for growth and proliferation of human primary cancer cell-lines (in words): NCI screen, 48 h
OVCAR-3 = assay: NCI anticancer screen, OVCAR-3; assay type: cell-based, human; settings: OVCAR-3, Ovarian, 48 h
TK-10 = assay: NCI anticancer screen, TK-10; assay type: cell-based, human; settings: TK-10, Renal, 48 h
K-562 = assay: NCI anticancer screen, K-562; assay type: cell-based, human; settings: K-562, Leukemia, 48 h
SN12C = assay: NCI anticancer screen, SN12C; assay type: cell-based, human; settings: 48 h, Renal
IGR-OV1 = assay: NCI anticancer screen, IGR-OV1; assay type: cell-based, human; settings: IGR-OV1, Ovarian, 48 h
[2] = Homo sapiens, read-out: LC50 (the source's name)

CC(C)(C)OC(=O)Nc1ccc(O)c(C(=O)NCCOC(=O)NCCNC(=O)c2cc(OCc3ccccc3)ccc2OCc2ccccc2)c1 [Compound Q012052, 2-[5-(BOC-amino)-2-hydroxybenzoylamino]ethyl 2-[2,5-bis-(benzyl-oxy)benzoylamino]ethylcarbamate]
GI50 (KM12; Homo sapiens): > 100 µM | GI50 (MALME-3M; Homo sapiens): > 100 µM | GI50 (OVCAR-4; Homo sapiens): 29.1 µM | GI50 (HT29; Homo sapiens, HT-29): > 100 µM | GI50 (OVCAR-8; Homo sapiens): > 100 µM | GI50 (HCT-116; Homo sapiens): > 100 µM | GI50 (PC-3; Homo sapiens): 24.9 µM | GI50 (UO-31; Homo sapiens): 19.9 µM | GI50 (OVCAR-5; Homo sapiens): > 100 µM | GI50 (EKVX; Homo sapiens): 35.1 µM | GI50 (NCI-H522; Homo sapiens): 49.7 µM | GI50 (ACHN; Homo sapiens): > 100 µM | GI50 (NCI-H226; Homo sapiens): > 100 µM | GI50 (MDA-MB-231/ATCC; Homo sapiens): > 100 µM | GI50 (SK-OV-3; Homo sapiens): > 100 µM | GI50 (A549/ATCC; Homo sapiens): 68.8 µM | GI50 (SK-MEL-5; Homo sapiens): > 100 µM | GI50 (SNB-75; Homo sapiens): 68.9 µM | GI50 (U251; Homo sapiens, U-251): > 100 µM | GI50 (NCI/ADR-RES; Homo sapiens): > 100 µM | GI50 (A498; Homo sapiens): > 100 µM | GI50 (NCI-H23; Homo sapiens): > 100 µM | GI50 (UACC-257): 15.6 µM | GI50 (MDA-MB-435; Homo sapiens): > 100 µM | GI50 (CAKI-1; Homo sapiens): 98 µM | GI50 (SK-MEL-2; Homo sapiens): > 100 µM | GI50 (SK-MEL-28; Homo sapiens): > 100 µM | growth and proliferation of human primary cancer cell-lines (in words) [1]: inhibited growth and proliferation | GI50 (OVCAR-3; Homo sapiens): > 100 µM | GI50 (TK-10; Homo sapiens): > 100 µM | GI50 (K-562; Homo sapiens, K562): 14 µM | GI50 (SN12C; Homo sapiens): > 100 µM | GI50 (IGR-OV1; Homo sapiens, IGROV-1): 25.3 µM

CCOC(=O)c1ccc(CNCc2cc(CN3CCN(c4ccccn4)CC3)c(O)c(OC)c2)cc1 [Compound Q012135T]
GI50 (KM12; Homo sapiens): 21 µM | CC50 (KM12; [2]): 73.3 µM | TGI (KM12): 39.2 µM | GI50 (MALME-3M; Homo sapiens): 20.1 µM | CC50 (MALME-3M; [2]): 74.1 µM | TGI (MALME-3M): 38.6 µM | GI50 (OVCAR-4; Homo sapiens): 18.6 µM | CC50 (OVCAR-4; [2]): 98 µM | TGI (OVCAR-4): 42.7 µM | TGI (HT29): 31.8 µM | GI50 (HT29; Homo sapiens, HT-29): 17.1 µM | CC50 (HT29; Homo sapiens, HT-29, read-out: LC50 (the source's name)): 59 µM | GI50 (OVCAR-8; Homo sapiens): 22.1 µM | CC50 (OVCAR-8; [2]): > 100 µM | TGI (OVCAR-8): 49.1 µM | TGI (HCT-116): >100 µM | GI50 (HCT-116; Homo sapiens): 18.6 µM | LC50 (50% lethal concentration) (HCT-116; Homo sapiens): > 100 µM | GI50 (PC-3; Homo sapiens): 17.9 µM | CC50 (PC-3; [2]): > 100 µM | TGI (PC-3): 45.4 µM | GI50 (UO-31; Homo sapiens): 11.5 µM | CC50 (UO-31; [2]): 61.6 µM | TGI (UO-31): 26.6 µM | GI50 (OVCAR-5; Homo sapiens): 23.4 µM | CC50 (OVCAR-5; [2]): 91.7 µM | TGI (OVCAR-5): 46.3 µM | GI50 (EKVX; Homo sapiens): 21.3 µM | CC50 (EKVX; [2]): > 100 µM | TGI (EKVX): 62.1 µM | GI50 (NCI-H522; Homo sapiens): 15.5 µM | LC50 (concentration killing 50% of cells) (NCI-H522; Homo sapiens): 81.7 µM | TGI (NCI-H522): 35.6 µM | GI50 (ACHN; Homo sapiens): 29.9 µM | CC50 (ACHN; [2]): > 100 µM | TGI (ACHN): >100 µM | GI50 (NCI-H226; Homo sapiens): 19.8 µM | LC50 (concentration giving 50% net cell kill) (NCI-H226; Homo sapiens): 91.5 µM | TGI (NCI-H226): 42.6 µM | TGI (MDA-MB-231/ATCC): 38.1 µM | GI50 (MDA-MB-231/ATCC; Homo sapiens): 18.1 µM | CC50 (MDA-MB-231/ATCC; [2]): 80.5 µM | GI50 (SK-OV-3; Homo sapiens): 24.9 µM | CC50 (SK-OV-3; [2]): > 100 µM | TGI (SK-OV-3): 56.7 µM | GI50 (A549/ATCC; Homo sapiens): 36.9 µM | LC50 (A549/ATCC; Homo sapiens): > 100 µM | TGI (A549/ATCC): >100 µM | GI50 (SK-MEL-5; Homo sapiens): 12.9 µM | CC50 (SK-MEL-5; [2]): 51.8 µM | TGI (SK-MEL-5): 25.8 µM | GI50 (SNB-75; Homo sapiens): 17.6 µM | LC50 (concentration killing 50% of cells) (SNB-75; Homo sapiens): 59.2 µM | TGI (SNB-75): 32.2 µM | GI50 (U251; Homo sapiens, U-251): 15.8 µM | CC50 (U251; Homo sapiens, U-251, read-out: LC50 (the source's name)): 65.7 µM | TGI (U251): 32.2 µM | TGI (NCI/ADR-RES): 96.9 µM | GI50 (NCI/ADR-RES; Homo sapiens): 27.6 µM | CC50 (NCI/ADR-RES; [2]): > 100 µM | TGI (A498): 51.4 µM | GI50 (A498; Homo sapiens): 25.8 µM | CC50 (A498; [2]): > 100 µM | GI50 (NCI-H23; Homo sapiens): 34.2 µM | CC50 (NCI-H23; [2]): > 100 µM | TGI (NCI-H23): >100 µM | GI50 (MDA-MB-435; Homo sapiens): 16.9 µM | CC50 (MDA-MB-435; [2]): 87.1 µM | TGI (MDA-MB-435): 38.4 µM | TGI (CAKI-1): 44.0 µM | GI50 (CAKI-1; Homo sapiens): 17.2 µM | CC50 (CAKI-1; [2]): > 100 µM | GI50 (SK-MEL-2; Homo sapiens): 17.2 µM | CC50 (SK-MEL-2; [2]): 79.5 µM | TGI (SK-MEL-2): 36.9 µM | GI50 (SK-MEL-28; Homo sapiens): 15.1 µM | CC50 (SK-MEL-28; [2]): 57.4 µM | TGI (SK-MEL-28): 29.5 µM | growth and proliferation of human primary cancer cell-lines (in words) [1]: inhibited growth and proliferation | cytostatic / cytotoxic effects on human cancer cell-lines (in words) ([1]; low micromolar concentrations, leukemia, melanoma, colon and central nervous system cell-lines): cytostatic and cytotoxic effects | GI50 (OVCAR-3; Homo sapiens): 14.1 µM | CC50 (OVCAR-3; [2]): 61.2 µM | TGI (OVCAR-3): 29.4 µM | GI50 (TK-10; Homo sapiens): 20.6 µM | CC50 (TK-10; [2]): > 100 µM | TGI (TK-10): 46.3 µM | GI50 (K-562; Homo sapiens, K562): 3.4 µM | CC50 (K-562; Homo sapiens, K562, read-out: LC50 (the source's name)): 3.4 µM | TGI (K-562): 14.1 µM | GI50 (SN12C; Homo sapiens): 21.7 µM | CC50 (SN12C; [2]): > 100 µM | TGI (SN12C): 55.7 µM | GI50 (IGR-OV1; Homo sapiens, IGROV-1): 14.7 µM | CC50 (IGR-OV1; Homo sapiens, IGROV-1, read-out: LC50 (the source's name)): > 100 µM | TGI (IGR-OV1): 43.4 µM
